# According to ChEMBL document CHEMBL1151547, “Enantioselective reduction of ethyl 3-methyl-2-oxobutanoate by an enzymatic system from callus of catharanthus roseus” (1994):
# System: Catharanthus roseus
# Assay: Substrate specificity for NADPH-dependent dehydrogenase of catharanthus roseus membrane fraction
# Assay type: functional
row,SMILES,Activity
1,CCCCCCCCC(=O)C(F)(F)F,0
2,CCOC(=O)CC(C)=O,0
3,CCOC(=O)C(=O)CC,65
4,CCC(=O)C(=O)O,0
5,CCCCCC(=O)C(=O)OCC,50
6,CCOC(=O)C(=O)C(C)C,100
7,COC(=O)CC(=O)CCl,0
8,O=CC(O)CO (stereo not drawn),0
9,O=C(c1ccccc1)C(F)(F)F,6
10,CCOC(=O)C(C)C(C)=O (stereo not drawn),0
11,CC(C)CC(=O)C(=O)O [2-Oxoisohexanoate],0
12,CC(C)C(=O)C(=O)O [2-Oxoisovalerate],0
13,CC=O [ACETALDEHYDE],0
14,CCOC(=O)C(C)=O [ETHYL PYRUVATE],59

# System: Catharanthus roseus
# Assay: Substrate specificity for NADPH-dependent dehydrogenase of catharanthus roseus supernatant fraction
# Assay type: functional
row,SMILES,Activity
1,CCCCCCCCC(=O)C(F)(F)F,0
2,CCOC(=O)CC(C)=O,0
3,CCOC(=O)C(=O)CC,68
4,CCC(=O)C(=O)O,0
5,CCCCCC(=O)C(=O)OCC,50
6,CCOC(=O)C(=O)C(C)C,100
7,COC(=O)CC(=O)CCl,12
8,O=CC(O)CO (stereo not drawn),0
9,O=C(c1ccccc1)C(F)(F)F,65
10,CCOC(=O)C(C)C(C)=O (stereo not drawn),29
11,CC(C)CC(=O)C(=O)O [2-Oxoisohexanoate],0
12,CC(C)C(=O)C(=O)O [2-Oxoisovalerate],0
13,CC=O [ACETALDEHYDE],0
14,CCOC(=O)C(C)=O [ETHYL PYRUVATE],70
